Reference: PubChem BioAssay (NCI)
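Each compound was tested at five concentrations against cells in 96-well plates for 48 hours. TGI: concentration producing complete growth inhibition.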

How the values were obtained:
Assay in all cases: DTP human tumour cell line panel, 48 h
786-0 renal = tested on: 786-0 renal
A498 renal = tested on: A498 renal
A549 NSCLC = tested on: A549 NSCLC
ACHN renal = tested on: ACHN renal
BT-549 breast = tested on: BT-549 breast
CAKI-1 renal = tested on: CAKI-1 renal
CCRF-CEM leukemia = tested on: CCRF-CEM leukemia
COLO 205 colon = tested on: COLO 205 colon
DU-145 prostate = tested on: DU-145 prostate
EKVX NSCLC = tested on: EKVX NSCLC
HCC-2998 colon = tested on: HCC-2998 colon
HCT-116 colon = tested on: HCT-116 colon
HCT-15 colon = tested on: HCT-15 colon
HL-60(TB) leukemia = tested on: HL-60(TB) leukemia
HOP-62 NSCLC = tested on: HOP-62 NSCLC
HS 578T breast = tested on: HS 578T breast
HT29 colon = tested on: HT29 colon
IGROV1 ovarian = tested on: IGROV1 ovarian
K-562 leukemia = tested on: K-562 leukemia
KM12 colon = tested on: KM12 colon
LOX IMVI melanoma = tested on: LOX IMVI melanoma
M14 melanoma = tested on: M14 melanoma
MALME-3M melanoma = tested on: MALME-3M melanoma
MCF7 breast = tested on: MCF7 breast
MDA-MB-231 breast = tested on: MDA-MB-231 breast
MDA-MB-435 = tested on: MDA-MB-435
MDA-N = tested on: MDA-N
MOLT-4 leukemia = tested on: MOLT-4 leukemia
NCI-H226 lung = tested on: NCI-H226 lung
NCI-H23 lung = tested on: NCI-H23 lung
NCI-H460 lung = tested on: NCI-H460 lung
NCI-H522 lung = tested on: NCI-H522 lung
NCI/ADR-RES ovarian = tested on: NCI/ADR-RES ovarian
OVCAR-3 ovarian = tested on: OVCAR-3 ovarian
OVCAR-4 ovarian = tested on: OVCAR-4 ovarian
OVCAR-5 ovarian = tested on: OVCAR-5 ovarian
OVCAR-8 ovarian = tested on: OVCAR-8 ovarian
PC-3 prostate = tested on: PC-3 prostate
RPMI-8226 leukemia = tested on: RPMI-8226 leukemia
SF-268 CNS = tested on: SF-268 CNS
SF-295 CNS = tested on: SF-295 CNS
SF-539 CNS = tested on: SF-539 CNS
SK-MEL-2 melanoma = tested on: SK-MEL-2 melanoma
SK-MEL-28 melanoma = tested on: SK-MEL-28 melanoma
SK-MEL-5 melanoma = tested on: SK-MEL-5 melanoma
SK-OV-3 ovarian = tested on: SK-OV-3 ovarian
SN12C renal = tested on: SN12C renal
SNB-19 CNS = tested on: SNB-19 CNS
SNB-75 CNS = tested on: SNB-75 CNS
SR leukemia = tested on: SR leukemia
SW-620 colon = tested on: SW-620 colon
T-47D breast = tested on: T-47D breast
TK-10 renal = tested on: TK-10 renal
U251 CNS = tested on: U251 CNS
UACC-257 melanoma = tested on: UACC-257 melanoma
UACC-62 melanoma = tested on: UACC-62 melanoma
UO-31 renal = tested on: UO-31 renal

CCOC(=O)C1(Cc2ccc3c(c2)CCC3)Cc2cc3c(cc2C1=O)CCC3 (configuration not stated)
TGI (786-0 renal): > 100 µM | TGI (A498 renal): > 78.7 µM | TGI (A549 NSCLC): > 100 µM | TGI (ACHN renal): > 100 µM | TGI (BT-549 breast): > 100 µM | TGI (CAKI-1 renal): > 100 µM | TGI (CCRF-CEM leukemia): > 100 µM | TGI (COLO 205 colon): > 100 µM | TGI (DU-145 prostate): > 100 µM | TGI (EKVX NSCLC): > 100 µM | TGI (HCC-2998 colon): > 100 µM | TGI (HCT-116 colon): > 100 µM | TGI (HCT-15 colon): > 100 µM | TGI (HL-60(TB) leukemia): 7.07 µM | TGI (HOP-62 NSCLC): > 100 µM | TGI (HS 578T breast): > 100 µM | TGI (HT29 colon): > 100 µM | TGI (IGROV1 ovarian): > 100 µM | TGI (K-562 leukemia): > 100 µM | TGI (KM12 colon): > 100 µM | TGI (LOX IMVI melanoma): > 100 µM | TGI (M14 melanoma): > 100 µM | TGI (MALME-3M melanoma): > 100 µM | TGI (MCF7 breast): > 100 µM | TGI (MDA-MB-231 breast): > 100 µM | TGI (MDA-MB-435): > 100 µM | TGI (MDA-N): > 100 µM | TGI (MOLT-4 leukemia): > 100 µM | TGI (NCI-H226 lung): > 100 µM | TGI (NCI-H23 lung): > 100 µM | TGI (NCI-H460 lung): > 100 µM | TGI (NCI-H522 lung): > 100 µM | TGI (NCI/ADR-RES ovarian): > 100 µM | TGI (OVCAR-3 ovarian): > 100 µM | TGI (OVCAR-4 ovarian): > 100 µM | TGI (OVCAR-5 ovarian): > 100 µM | TGI (OVCAR-8 ovarian): > 100 µM | TGI (PC-3 prostate): > 100 µM | TGI (RPMI-8226 leukemia): > 100 µM | TGI (SF-268 CNS): > 100 µM | TGI (SF-295 CNS): > 100 µM | TGI (SF-539 CNS): > 100 µM | TGI (SK-MEL-2 melanoma): > 100 µM | TGI (SK-MEL-28 melanoma): > 100 µM | TGI (SK-MEL-5 melanoma): > 100 µM | TGI (SK-OV-3 ovarian): > 100 µM | TGI (SN12C renal): > 100 µM | TGI (SNB-19 CNS): > 100 µM | TGI (SNB-75 CNS): > 100 µM | TGI (SR leukemia): > 100 µM | TGI (SW-620 colon): > 100 µM | TGI (T-47D breast): > 100 µM | TGI (TK-10 renal): > 100 µM | TGI (U251 CNS): > 100 µM | TGI (UACC-257 melanoma): > 100 µM | TGI (UACC-62 melanoma): > 100 µM | TGI (UO-31 renal): > 100 µM
